Data set [1] can be described thus: In vitro peptide stability in 10% rodent brain homogenate. The class given is in vitro ADME, rat. The procedure:
For the peptide stability assay in vitro, both 15merTNP and peptide analogue MP2 were incubated separately with fresh 10% rodent brain homogenate to model degradation in tissues. In order to create a physiological dose of peptide in the in vitro assay, both radioactive (^3H-labelled; hot) and non-radioactive (cold) peptides were combined in a set ratio. Cold peptide was added at a dose of […] per ml of 10% brain homogenate. Hot peptide was added at a dose of 250 μCi per ml 10% brain homogenate. Following the addition of hot and cold peptide; the homogenate was vortexed and incubated for different time points. The reaction was stopped by adding complete protease inhibitor cocktail and the samples analysed.
The biological stability of the peptides was evaluated by incubating them (90 nmol) in fresh 10% rodent brain homogenate for different times at 37° C. The amount of intact peptide was estimated by running the supernatant of the homogenate on a 16% Tricine gel to separate peptide that had not had its amino acid sequence degraded. FIG. 3 illustrates the relative stability of 15merTNP and peptide analogue MP2 over two hours run on a 16% Tricine gel from time 0-120 min with samples run in duplicate. The values correspond to the in vitro half-life, which is defined as the time needed for 50% degradation of the peptide.

Details of data set [2]: species or system mice (129×1 strain). As to conditions: mouse, in vivo. The procedure:
Another essential requirement of drug development is the ability of the peptide to cross the BBB and impact on targeted tissue. To measure the ability of 15merTNP and peptide analogue MP2 to cross the BBB, intracerebroventricular (i.c.v) delivery was assessed. The use of i.c.v injections on animal models allows for high doses to be delivered straight to the ventricular spaces where it can cross the parenchyma layer to the brain matter.
For i.c.v injections, control mice (129×1 strain) were anesthetized with intraperitoneal ketamine/xylazine at a dose of 10 ml/kg and then administered with 200 μg of either peptide (90 nmol). Both radioactive (^3H-labelled; hot) and non-radioactive (cold) was used to allow physiological doses of peptide to be delivered.
To determine whether the peptides had effectively penetrated into the brain parenchyma, a capillary depletion experiment was performed. After 25 min post injection the animal was sacrificed and the brain removed. This was homogenized and centrifuged for 10 min at 13000 rpm at 4° C. resulting in a supernatant containing predominately radioactivity from the cortex and a pellet with radioactivity from the capillaries and endothelium. A comparison of radioactivity in each sample was conducted to assess percentage of peptide movement into the cortex. The amount of radioactivity in the capillary pellet of mice that were perfused and not perfused with saline solution was compared to determine the percentage of peptide bound to the luminal surface of the capillaries and sequestered by brain endothelial cells.
A detailed necropsy was performed on each animal following perfusion to thoroughly assess peptide movement throughout peripheral organs, central nervous tissue and blood. […] Thus the concentration of labelled tritium could be measured per mass of sample and using this and the known ratio of non-labelled peptide present, the concentration of total peptide could be determined.
The pharmacokinetic profile of peptide analogue MP2 over four time points, post i.c.v injection into the CNS was determined. […]

For the next data set, the system named is human Aβ42. Kind of data set: MTS cell viability assay of MP2 analogues, cells treated with human Aβ42 (20 μM). The settings on record: peptide 80-400 μM. The class given is cell-based. The procedure:
FIG. 7 illustrates the effect of various peptide analogues of the peptide analogue of SEQ ID NO:2 on cell viability associated with human Aβ1-42. Cells were treated with human Aβ42 peptide (20 μM) in the absence or presence of increasing doses of MP2, MP4, MP5 or MP6 (n=6, for each peptide). Cell viability was assessed by the MTS assay.
Cells were treated with human Aβ42 peptide (20 μM) in the absence or presence of increasing doses of MP2, MP4, MP5 or MP6 (n=6, for each peptide). Cell viability was assessed by the MTS assay.
(In general: Tetrazolium dyes change colour on reduction, which living cells bring about.)

Another data set has as its target Aβ (Homo sapiens, UniProt P05067). As to the kind of experiment: Copper-induced Aβ oligomer generation (SDS-PAGE, WO2 immunoblot). The format is biochemical. As to conditions: Aβ 5 uM, Cu+2 25 μM, 0-1000 μM peptide, 37 C, 24 hours; vs reverse peptide control. As for the experimental part: Incubation of Aβ with copper generates cross-linked oligomeric species (Atwood et al., 2000: Cell Mol Biol, 46: 777-783; Atwood et al., 2004: Biochemistry, 43: 560-568). In this experiment, Aβ (5 uM) is incubated with Cu+2 (25 μM) and 0-1000 μM of the modified peptides at 37 C for 24 hours. After the incubation period, 20 ng is loaded onto an SDS-PAGE gel and immunoblotted with WO2 antibody. Compared to the reverse peptide control, all the modified peptides inhibited the generation of Aβ oligomers at various concentration.

The source of these data is patent publication US8492341B2, “Amyloid-β binding peptides” (Alzyme Pty Ltd., priority 2006, dated 2013).

In general, half-life refers to the time in which the quantity being followed falls by half. Lower therefore signals fast loss.

Some results are limits rather than exact numbers.

Sequence of Aβ (P05067 672-713 limits assumed): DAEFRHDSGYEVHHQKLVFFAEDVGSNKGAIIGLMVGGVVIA

Consider “Ac-NRTPQMLKR-NH2 [MP2, Ac-Asn-Arg-Thr-Pro-Gln-Met-Leu-Lys-Arg-NH2]”, for which the “Stability in rat brain homogenate (in vitro half-life)” value in data set [1] (10% brain homogenate, 37° C., listed as Peptide analogue MP2) was greater than 24 h. For the same substance, in data set [1] (10% rodent brain homogenate, 24 hour time period), the “stability relative to 15merTNP” value was “significantly more stable”. Moreover, in data set [1] (rat, fresh 10% brain homogenate, 10% brain homogenate, 37° C.), the half-life at 2.5 mmol per ml was greater than 24 h. Besides, in data set [2], the “crossing of the blood brain barrier” value was “poorly” and the “peptide removed from the CNS” value is listed as 99%. The “cell viability following treatment with human Aβ42” value in the data set with human Aβ42 is “significantly increased”. Moreover, the “inhibition of Aβ oligomer formation” value against Aβ is “most potent”.
